# Measurements published in publication PMC6706801, “Palladium-Catalyzed Hydroxycarbonylation of (Hetero)aryl Halides for DNA-Encoded Chemical Library Synthesis” (Bioconjugate Chemistry, 2019).
# Target: T1, soluble epoxide hydrolase (sEH, EPHX2) (Homo sapiens, UniProt P34913)
# T1 sequence (P34913 1-555): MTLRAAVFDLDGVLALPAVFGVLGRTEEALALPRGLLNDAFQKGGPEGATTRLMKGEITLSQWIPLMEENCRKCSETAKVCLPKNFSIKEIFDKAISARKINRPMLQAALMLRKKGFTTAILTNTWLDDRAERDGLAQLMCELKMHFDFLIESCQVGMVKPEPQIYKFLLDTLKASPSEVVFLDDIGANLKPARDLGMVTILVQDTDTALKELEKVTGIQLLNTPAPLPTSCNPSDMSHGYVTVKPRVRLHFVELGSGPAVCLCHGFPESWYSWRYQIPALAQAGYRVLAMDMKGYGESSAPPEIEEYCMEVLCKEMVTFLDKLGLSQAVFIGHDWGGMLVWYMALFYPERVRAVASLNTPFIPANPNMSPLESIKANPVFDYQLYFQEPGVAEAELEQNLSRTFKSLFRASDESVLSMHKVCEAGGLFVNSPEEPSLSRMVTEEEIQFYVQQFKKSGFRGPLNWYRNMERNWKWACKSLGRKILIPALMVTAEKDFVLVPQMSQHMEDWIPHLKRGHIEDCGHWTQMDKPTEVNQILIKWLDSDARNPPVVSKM
# Assay: fluorescent kinetic enzyme assay (off-DNA hit resynthesised after DECL selection)
# Assay type: biochemical
smiles,measurement,value
"Cc1cccc(CCNC(=O)c2ccc(F)c(CN(C)Cc3cc(C(=O)NCCc4cccc(C)c4)ccc3F)c2)c1 [compound 5, 5]",Ki,9 ± 2 nM
